Assay results: patent publication US20260216198A1, “GPR35 MODULATORS” (ThirtyFiveBio Limited, priority 2023, published 2026)

Molecular target: T1, GPR35 (Homo sapiens, UniProt Q9HC97)
T1 construct: expressed in transfected cells; host or cells: CHO-K1 cells co-expressing mitochondrial aequorin and Gα16
Test: cellular GPR35 phospho-ERK HTRF assay (inhibition of lodoxamide-induced phospho-ERK signal)
Type: cell-based
Conditions: GPR35-CHO-K1-mt aequorin-Gα16 cell line; agonist lodoxamide at EC80; read-out: Activity Group (IC50, inhibition of GPR35 agonist-induced phospho-ERK signal)
Text: (§1) The functional GPR35 assay as described in the accompanying examples measures the ability of GPR35 modulators to inhibit a GPR35 agonist-induced phospho-ERK signal. This is expressed as the concentration of modulator required to reduce the phospho-ERK signal by 50 percent, i.e. the IC50; the signal window being defined as the difference between agonist plus modulator vehicle (no modulator) and agonist vehicle (no agonist) controls.
as §1, with “functional” for “functional GPR35”, “assay” for “assay as”, “described” for “described in the accompanying examples”
This assay is a cellular GPR35 phospho-ERK homogeneous time resolved fluorescence (HTRF) assay using the GPR35-CHO-K1-mt aequorin-Gα16 cell line. Upon activation of GPR35 with the agonist lodoxamide at EC80 concentration, ERK 1/2 is phosphorylated, and after lysis of the cell membrane, phospho-ERK1/2 (Thr202/Tyr204) is detected in a sandwich assay using two different specific antibodies, one labelled with Eu^3+-cryptate (donor) and the second with d2 (acceptor). When the dyes are in proximity, the excitation of the donor with a light source (laser or flash lamp) triggers a Fluorescence Resonance Energy Transfer (FRET) towards the acceptor, resulting in specific acceptor fluorescence (at 665 nm). The specific signal is directly proportional to the amount of phospho-ERK1/2 (Thr202/Tyr204) in the sample. Compounds that interfere with the levels of phospho-ERK1/2 (Thr202/Tyr204) will result in a low HTRF signal.

T1 sequence (Q9HC97 whole entry): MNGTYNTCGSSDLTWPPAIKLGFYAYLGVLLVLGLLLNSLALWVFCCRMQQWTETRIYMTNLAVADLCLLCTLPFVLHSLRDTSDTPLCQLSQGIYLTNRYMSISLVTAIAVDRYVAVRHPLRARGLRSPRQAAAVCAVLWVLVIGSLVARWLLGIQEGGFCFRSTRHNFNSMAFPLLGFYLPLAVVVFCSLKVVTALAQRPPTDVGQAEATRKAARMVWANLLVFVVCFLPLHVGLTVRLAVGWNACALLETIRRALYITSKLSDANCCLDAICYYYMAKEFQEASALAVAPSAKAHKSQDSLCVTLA

Structure (SMILES)	IC50 [nM]
O=C(Nc1ccc(OCCc2ccccc2)cc1)c1cccc(-c2cnc(NC3CC3)c(C(=O)O)c2)c1 [Example 38, 2-(Cyclopropylamino)-5-(3-((4-phenethoxyphenyl)carbamoyl)phenyl)nicotinic acid]	< 1000
Cc1ncc(-c2cccc(C(=O)Nc3ccc(COCc4ccccc4)cc3)c2)cc1C(=O)O [Example 39, 5-(3-((4-((Benzyloxy)methyl)phenyl)carbamoyl)phenyl)-2-methylnicotinic acid]	< 1000
Cc1ncc(-c2cccc(C(=O)Nc3cccc(COCc4ccccc4)c3)c2)cc1C(=O)O [Example 40, 5-(3-((3-((Benzyloxy)methyl)phenyl)carbamoyl)phenyl)-2-methylnicotinic acid]	1000 to 10000
Cc1ncc(-c2cccc(C(=O)Nc3ccc(OCC4CC4)cc3)c2)cc1C(=O)O [Example 41, 5-(3-((4-(Cyclopropylmethoxy)phenyl)carbamoyl)phenyl)-2-methylnicotinic acid]	1000 to 10000
Cc1ncc(-c2cccc(C(=O)Nc3ccc(COC4CC4)cc3)c2)cc1C(=O)O [Example 42, 5-(3-((4-(Cyclopropoxymethyl)phenyl)carbamoyl)phenyl)-2-methylnicotinic acid]	1000 to 10000
Cc1ncc(-c2cccc(C(=O)Nc3ccc(CS(=O)(=O)Cc4ccccc4)cc3)c2)cc1C(=O)O [Example 43, 5-(3-((4-((Benzylsulfonyl)methyl)phenyl)carbamoyl)phenyl)-2-methylnicotinic acid]	1000 to 10000
Cc1ncc(-c2cccc(C(=O)Nc3ccc(COCC4CC4)cc3)c2)cc1C(=O)O [Example 44, 5-(3-((4-((Cyclopropylmethoxy)methyl)phenyl)carbamoyl)phenyl)-2-methylnicotinic acid]	1000 to 10000
O=C(Nc1ccc(COCC2CC2)cc1)c1cccc(-c2cnc(Cl)c(C(=O)O)c2)c1 [Example 45, 2-Chloro-5-(3-((4-((cyclopropylmethoxy)methyl)phenyl)carbamoyl)phenyl)nicotinic acid]	1000 to 10000
O=C(Nc1ccc(OCCc2ccccc2)nc1)c1cccc(-c2cccc(C(=O)O)n2)c1 [Example 46, 6-(3-((6-Phenethoxypyridin-3-yl)carbamoyl)phenyl)picolinic acid]	1000 to 10000
Cc1ncc(-c2cccc(C(=O)Nc3ccc(COCc4ccccc4)cc3F)c2)cc1C(=O)O [Example 47, 5-(3-((4-((Benzyloxy)methyl)-2-fluorophenyl)carbamoyl)phenyl)-2-methylnicotinic acid]	1000 to 10000
O=C(Nc1cccc(-c2cccc(C(=O)O)n2)c1)c1ccc(OCCCCc2ccccc2)cc1 [Example 48, 6-(3-(4-(4-Phenylbutoxy)benzamido)phenyl)picolinic acid]	< 1000
Cc1ncc(-c2ncc(C(=O)Nc3ccc(COCc4ccccc4)cc3)s2)cc1C(=O)O [Example 49, 5-(5-((4-((Benzyloxy)methyl)phenyl)carbamoyl)thiazol-2-yl)-2-methylnicotinic acid]	1000 to 10000

Further lines, results first:

IC50 [nM]	Structure (SMILES)
1000 to 10000	Cc1ncc(-c2nc(C(=O)Nc3ccc(COCc4ccccc4)cc3)cs2)cc1C(=O)O [Example 50, 5-(4-((4-((Benzyloxy)methyl)phenyl)carbamoyl)thiazol-2-yl)-2-methylnicotinic acid]
1000 to 10000	Cc1ncc(-c2cncc(C(=O)Nc3ccc(OCCc4ccccc4)cc3)c2)cc1C(=O)O [Example 51, 6-Methyl-5′-((4-phenethoxyphenyl)carbamoyl)-[3,3′-bipyridine]-5-carboxylic acid]
< 1000	Cc1ncc(-c2ccc(F)c(C(=O)Nc3ccc(COCc4ccccc4)cc3)c2)cc1C(=O)O [Example 52, 5-(3-((4-((Benzyloxy)methyl)phenyl)carbamoyl)-4-fluorophenyl)-2-methylnicotinic acid]
< 1000	Cc1ncc(-c2cc(C(=O)Nc3ccc(OCCc4ccccc4)cc3)ccn2)cc1C(=O)O [Example 53, 6′-Methyl-4-((4-phenethoxyphenyl)carbamoyl)-[2,3′-bipyridine]-5′-carboxylic acid]
1000 to 10000	Cc1ncc(-c2cncc(C(=O)Nc3ccc(OCCc4ccccc4)cc3)n2)cc1C(=O)O [Example 54, 2-Methyl-5-(6-((4-phenethoxyphenyl)carbamoyl)pyrazin-2-yl)nicotinic acid]
1000 to 10000	Cc1ncc(-c2nccc(C(=O)Nc3ccc(OCCc4ccccc4)cc3)n2)cc1C(=O)O [Example 55, 2-Methyl-5-(4-((4-phenethoxyphenyl)carbamoyl)pyrimidin-2-yl)nicotinic acid]
< 1000	Cc1ncc(-c2cccc(C(=O)Nc3ccc(COCc4ccccc4)c(F)c3)c2)cc1C(=O)O [Example 56, 5-[3-[[4-(Benzyloxymethyl)-3-fluoro-phenyl]carbamoyl]phenyl]-2-methyl-pyridine-3-carboxylic acid]
< 1000	Cc1ncc(-c2cccc(C(=O)Nc3cnn(CCc4ccccc4)c3)c2)cc1C(=O)O [Example 57, 2-Methyl-5-[3-[[1-(2-phenylethyl)pyrazol-4-yl]carbamoyl]phenyl]pyridine-3-carboxylic acid]
< 1000	Cc1ccc(S(=O)(=O)Cc2ccc(NC(=O)c3cccc(-c4cnc(C)c(C(=O)O)c4)c3)cc2)cc1 [Example 58, 2-Methyl-5-[3-[[4-(p-tolylsulfonylmethyl)phenyl]carbamoyl]phenyl]pyridine-3-carboxylic acid]
< 1000	Cc1ncc(-c2cccc(C(=O)Nc3ccc(COC(C)c4ccccc4)cc3)c2)cc1C(=O)O (stereo not shown) [Example 59, 2-Methyl-5-[3-[[4-(1-phenylethoxymethyl)phenyl]carbamoyl]phenyl]pyridine-3-carboxylic acid]
< 1000	Cc1ncc(-c2cccc(C(=O)Nc3ccc(OC(C)C4CC4)cc3)c2)cc1C(=O)O (stereo not shown) [Example 60, 5-[3-[[4-(1-Cyclopropylethoxy)phenyl]carbamoyl]phenyl]-2-methyl-pyridine-3-carboxylic acid]
1000 to 10000	COc1cc(COCc2ccccc2)ccc1NC(=O)c1cccc(-c2cnc(C)c(C(=O)O)c2)c1 [Example 61, 5-[3-[[4-(Benzyloxymethyl)-2-methoxy-phenyl]carbamoyl]phenyl]-2-methyl-pyridine-3-carboxylic acid]
1000 to 10000	Cc1ncc(-c2cccc(C(=O)Nc3ccc(COCc4ccccn4)c(F)c3)c2)cc1C(=O)O [Example 62, 5-[3-[[3-Fluoro-4-(2-pyridylmethoxymethyl)phenyl]carbamoyl]phenyl]-2-methyl-pyridine-3-carboxylic acid]
< 1000	COc1ccc(COCc2ccc(NC(=O)c3cccc(-c4cnc(C)c(C(=O)O)c4)c3)cc2F)cc1 [Example 63, 5-[3-[[3-Fluoro-4-[(4-methoxyphenyl)methoxymethyl]phenyl]carbamoyl]phenyl]-2-methyl-pyridine-3-carboxylic acid]
< 1000	COc1cccc(COCc2ccc(NC(=O)c3cccc(-c4cnc(C)c(C(=O)O)c4)c3)cc2F)c1 [Example 64, 5-[3-[[3-Fluoro-4-[(3-methoxyphenyl)methoxymethyl]phenyl]carbamoyl]phenyl]-2-methyl-pyridine-3-carboxylic acid]
< 1000	O=C(O)c1cnc(F)c(-c2cccc(C(=O)Nc3ccc(OCCc4ccccc4)cc3)c2)c1 [Example 65, 6-Fluoro-5-[3-[[4-(2-phenylethoxy)phenyl]carbamoyl]phenyl]pyridine-3-carboxylic acid]
